Measured values from patent US12102667B2, “Polypeptides and antibiotics against gram-negative bacterium comprising the same” (priority 2021, dated 2024).
Entries after “also recorded” stand apart in the source; their conditions may differ. Where two headings read alike, the source gives them in different places.

How the values were obtained:
K. pneumoniae = K. pneumoniae CCARM 10143; cited from earlier work
E. coli [1] = details: cited from earlier work
E. coli [2] = experiment: Checkerboard assay (MIC in combination, FIC index); format: cell-based, Escherichia coli; details: antibiotic combined with LNT113
Method: LNT113 was vertically diluted 2-fold and the antibiotic was serially diluted horizontally in a 96-well plate. Bacterium at a concentration of 10^6 CFU/ml were added to each well in a CAA medium. […] The fractional inhibitory concentration (FIC) for the LNT113 or antibiotic was calculated by dividing the MIC of two drugs by combining it with the MIC of each drug alone. […] The FICI was considered as a synergistic effect ≤0.5, an additive >0.5 ˜≤1, an independent effect (indifference)>1.0 ˜≤2, and an antagonistic effect (antagonism) >2.

| Compound | MIC of antibiotics (K. pneumoniae) | MIC of antibiotics (E. coli [1]; E. coli CCARM 1A746) | MIC of antibiotics (E. coli [1]; E. coli CCARM 1B684) | Fractional inhibitory concentration index (FICI) of LNT113 using various antibiotics (E. coli [2]; E. coli ATCC 8739) | Fractional inhibitory concentration index (FICI) of LNT113 using various antibiotics (E. coli [2]; E. coli ATCC 51739) | Fractional inhibitory concentration index (FICI) of LNT113 using various antibiotics (E. coli [2]; E. coli CCARM 1A746) | Fractional inhibitory concentration index (FICI) of LNT113 using various antibiotics (E. coli [2]; E. coli FORC81) | Fractional inhibitory concentration index (FICI) of LNT113 using various antibiotics (E. coli [2]; E. coli UPEC 3150) | combination effect with LNT113, in words (E. coli [2]; E. coli strains overall) |
| --- | --- | --- | --- | --- | --- | --- | --- | --- | --- |
| CC1(C)S[C@@H]2[C@H](NC(=O)[C@H](N)c3ccccc3)C(=O)N2[C@H]1C(=O)O [Ampicillin] | ≥128 µg/mL | ≥128 µg/mL | ≥128 µg/mL | – | – | – | – | – | – |
| CC[C@H]1OC(=O)[C@H](C)[C@@H](O[C@H]2C[C@@](C)(OC)[C@@H](O)[C@H](C)O2)[C@H](C)[C@@H](O[C@@H]2O[C@H](C)C[C@H](N(C)C)[C@H]2O)[C@](C)(O)C[C@@H](C)CN(C)[C@H](C)[C@@H](O)[C@]1(C)O [Azithromycin] | – | – | – | 1 | 0.75 | 1 | 2 | 0.75 | – |
| CC(C)(O/N=C(\C(=O)N[C@@H]1C(=O)N2C(C(=O)[O-])=C(C[n+]3ccccc3)CS[C@H]12)c1csc(N)n1)C(=O)O [Ceftazidime] | – | – | – | 2 | 2 | 2 | 1 | 1 | Neither ceftazidime and kanamycin showed a synergistic or additive effect; also recorded: little additive effect |
| O=C(N[C@H](CO)[C@H](O)c1ccc([N+](=O)[O-])cc1)C(Cl)Cl [Chloramphenicol] | – | – | – | 1 | 0.75 | – | 2 | 0.75 | – |
| NC[C@H]1O[C@H](O[C@H]2[C@H](O)[C@@H](O[C@H]3O[C@H](CO)[C@@H](O)[C@H](N)[C@H]3O)[C@H](N)C[C@@H]2N)[C@H](O)[C@@H](O)[C@@H]1O [Kanamycin] | – | – | – | 2 | 1 | – | 1 | 1 | – |
